Paper PMC5456102, “NGR-peptide−drug conjugates with dual targeting properties” (PLoS ONE, 2017)

Experiments:
[1] = test system: HT-29 (human colon adenocarcinoma) cells, CD13 negative; assay: In vitro cytotoxicity (72 h treatment); assay type: cell-based; conditions: 72 h continuous treatment, PrestoBlue viability, 5000 cells/well, 9 concentrations in triplicates, IC50 averaged, tests carried out 3 times, read-out: IC50, 72 h, HT-29 (cytotoxic effect)
Description: (§1) In the case of cytotoxicity measurements, the drug containing medium was on the cells for the full period of the 72 h assay. At 72 h, supernatant was removed from the cells, and viability was assessed by the PrestoBlue® reagent (Life Technologies), which was diluted in PBS to reach the concentration given in the manufacturer’s instruction. Curves were fitted by GraphPad Prism 5 software using the sigmoidal dose–response model (https://www.graphpad.com/scientific-software/prism/). The conjugates were serially diluted, 9 concentrations were measured in triplicates. […] IC50 values were averaged; statistical significance was calculated using unpaired t-tests. The cytostatic/cytotoxic effect of the cyclic NGR peptide-Dau conjugates was examined in vitro on CD13-positive HT-1080 human fibrosarcoma cells and on CD13-negative HT-29 human colon adenocarcinoma cells. High expression of CD13 in HT-1080 cells was confirmed by FACS, using the CD13-specific OKM13 antibody. […] We compared the toxicity of the conjugates and the free drug molecules. It is important to note that the free drug enters the cell via diffusion, while the conjugates are taken up by a receptor-mediated pathway, which is followed by the intracellular release of the drug molecule or its active metabolite. […] In the second experiment the conjugates were added to the cells for 72 h (cytotoxic effect).

[2] = test system: HT-1080 (human fibrosarcoma) cells, CD13 positive; assay: In vitro cytotoxicity (72 h treatment); assay type: cell-based; conditions: 72 h continuous treatment, PrestoBlue viability, 5000 cells/well, 9 concentrations in triplicates, IC50 averaged, tests carried out 3 times, read-out: IC50, 72 h, HT1080 (cytotoxic effect)
Description: as §1

[3] = test system: HT-29 (human colon adenocarcinoma) cells, CD13 negative; assay: In vitro cytostatic effect (6 h treatment + 66 h drug-free); assay type: cell-based; conditions: HT-29, read-out: IC50, 6 h, HT-29 (cytostatic effect)
Description: as §1, with “At” for “In the case of cytotoxicity measurements, the drug containing medium was on the cells for the full period of the 72 h assay. At”

[4] = test system: HT-1080 (human fibrosarcoma) cells, CD13 positive; assay: as above; assay type: cell-based; conditions: HT-1080, read-out: IC50, 6 h, HT1080 (cytostatic effect)
Description: as §1, with “At” for “In the case of cytotoxicity measurements, the drug containing medium was on the cells for the full period of the 72 h assay. At”

[5] = test system: DNA; conditions: main Dau containing metabolite; cited from earlier work

Compound: COc1cccc2c1C(=O)c1c(O)c3c(c(O)c1C2=O)C[C@@](O)(C(C)=O)C[C@@H]3O[C@H]1C[C@H](N)[C@H](O)[C@H](C)O1 [Daunomycin, daunomycin]
- IC50 [1]: 150 ± 100 nM
- IC50 [2]: 230 ± 100 nM
- IC50 [3]: 700 ± 300 nM
- IC50 [4]: 700 ± 300 nM

Compound: COc1cccc2c1C(=O)c1c(O)c3c(c(O)c1C2=O)C(OC1CC(N)C(O)C(C)O1)CC(O)(C(C)=NOCC(=O)NCC(=O)O)C3 (stereo not drawn) [Dau = Aoa-Gly-OH]
- binding to DNA [5]: binds efficiently to DNA
